PubChem BioAssay AID1224910

Target: Serine/threonine-protein kinase PAK 2 (Homo sapiens) (UniProt Q13177)
Test: PubChem AID 1224910
Settings: Caliper in vitro kinase assay, dephosphorylated PAK2

Sequence of Serine/threonine-protein kinase PAK 2 (Homo sapiens) (Q13177 whole entry, looked up): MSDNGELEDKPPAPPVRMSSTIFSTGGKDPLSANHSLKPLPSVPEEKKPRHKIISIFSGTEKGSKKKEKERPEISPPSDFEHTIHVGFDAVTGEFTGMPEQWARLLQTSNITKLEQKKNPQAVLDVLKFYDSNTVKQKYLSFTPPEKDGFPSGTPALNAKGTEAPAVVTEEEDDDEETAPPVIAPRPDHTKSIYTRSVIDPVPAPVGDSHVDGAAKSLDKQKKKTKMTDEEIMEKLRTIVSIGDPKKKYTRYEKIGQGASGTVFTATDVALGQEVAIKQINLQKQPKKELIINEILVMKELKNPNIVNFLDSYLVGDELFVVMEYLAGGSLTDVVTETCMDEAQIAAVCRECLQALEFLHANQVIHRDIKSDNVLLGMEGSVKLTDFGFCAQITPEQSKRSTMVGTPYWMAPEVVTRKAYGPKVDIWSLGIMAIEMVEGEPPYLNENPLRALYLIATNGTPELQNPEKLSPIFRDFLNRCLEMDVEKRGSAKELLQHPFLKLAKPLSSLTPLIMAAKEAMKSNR

IC50: 270 nM
Compound: CC(C)NC(=O)N1CC[C@H](N=C2Nc3cc(F)ccc3N(CC(F)F)c3ccc(Cl)cc32)C1
